Experimental data published in the NIST ThermoML archive (doi:10.1021/je7001946).
± gives the expanded uncertainty stated by the source.

Assay: mn = molality of the nth substance listed, in mol/kg
Details: 101.3 kPa, Liquid; for speed of sound: Pulse-echo method

[Br-].[Br-].[Zn+2] [zinc bromide] + CC#N
Details	mass density, 288.15 K [kg/m3]	mass density, 293.15 K [kg/m3]	mass density, 298.15 K [kg/m3]	mass density, 303.15 K [kg/m3]	mass density, 308.15 K [kg/m3]	mass density, 313.15 K [kg/m3]	mass density, 323.15 K [kg/m3]	speed of sound, 298.15 K [m/s]
m1 = 0.02964	–	–	–	–	–	–	–	1277.1 ± 1.2
m1 = 0.03209	792.171 ± 0.59	786.781 ± 0.6	781.365 ± 0.61	775.922 ± 0.61	770.453 ± 0.62	764.95 ± 0.62	753.836 ± 0.64	–
m1 = 0.0404	793.435 ± 0.59	788.04 ± 0.6	782.622 ± 0.6	777.179 ± 0.61	771.701 ± 0.62	766.197 ± 0.62	755.075 ± 0.64	–
m1 = 0.04717	794.467 ± 0.59	789.072 ± 0.6	783.65 ± 0.6	778.202 ± 0.61	772.724 ± 0.62	767.215 ± 0.62	756.09 ± 0.64	1276.4 ± 1.2
m1 = 0.05609	795.839 ± 0.59	790.436 ± 0.59	785.044 ± 0.6	779.559 ± 0.61	774.08 ± 0.61	768.567 ± 0.62	757.437 ± 0.64	–
m1 = 0.06324	796.938 ± 0.59	791.534 ± 0.59	786.108 ± 0.6	780.651 ± 0.61	775.17 ± 0.61	769.655 ± 0.62	758.516 ± 0.63	1275.7 ± 1.2
m1 = 0.07124	798.167 ± 0.59	792.766 ± 0.59	787.332 ± 0.6	781.876 ± 0.61	776.393 ± 0.61	770.874 ± 0.62	759.73 ± 0.63	–
m1 = 0.07952	799.446 ± 0.58	794.033 ± 0.59	788.597 ± 0.6	783.143 ± 0.6	777.651 ± 0.61	772.126 ± 0.62	760.98 ± 0.63	1275.1 ± 1.2
m1 = 0.09524	801.876 ± 0.58	796.466 ± 0.59	791.02 ± 0.59	785.546 ± 0.6	780.047 ± 0.61	774.52 ± 0.61	763.359 ± 0.63	–
m1 = 0.1099	804.162 ± 0.58	798.743 ± 0.59	793.295 ± 0.59	787.86 ± 0.6	782.357 ± 0.61	776.822 ± 0.61	765.649 ± 0.63	1273.6 ± 1.2
m1 = 0.1252	806.567 ± 0.58	801.138 ± 0.58	795.677 ± 0.59	790.202 ± 0.6	784.687 ± 0.6	779.149 ± 0.61	767.969 ± 0.62	–
m1 = 0.1317	807.593 ± 0.58	802.157 ± 0.58	796.698 ± 0.59	791.221 ± 0.59	785.702 ± 0.6	780.162 ± 0.61	768.971 ± 0.62	1272.5 ± 1.2
m1 = 0.1402	808.922 ± 0.57	803.487 ± 0.58	798.026 ± 0.59	792.539 ± 0.59	787.024 ± 0.6	781.476 ± 0.61	770.273 ± 0.62	–
m1 = 0.1554	–	–	–	–	–	–	–	1271.2 ± 1.2

[Br][Co][Br] [cobalt(II) bromide] + CC#N
Details	mass density, 288.15 K [kg/m3]	mass density, 293.15 K [kg/m3]	mass density, 298.15 K [kg/m3]	mass density, 303.15 K [kg/m3]	mass density, 308.15 K [kg/m3]	mass density, 313.15 K [kg/m3]	mass density, 323.15 K [kg/m3]	speed of sound, 298.15 K [m/s]
m1 = 0.06384	797.529 ± 0.59	792.118 ± 0.59	786.677 ± 0.6	781.218 ± 0.61	775.72 ± 0.61	770.192 ± 0.62	759.026 ± 0.63	–
m1 = 0.08092	800.3 ± 0.59	794.88 ± 0.59	789.432 ± 0.6	783.966 ± 0.6	778.458 ± 0.61	772.92 ± 0.62	761.738 ± 0.63	–
m1 = 0.09698	802.926 ± 0.58	797.495 ± 0.59	792.044 ± 0.6	786.563 ± 0.6	781.049 ± 0.61	775.5 ± 0.62	764.302 ± 0.63	1277 ± 1.2
m1 = 0.1125	805.465 ± 0.58	800.033 ± 0.59	794.565 ± 0.59	789.08 ± 0.6	783.57 ± 0.61	778.02 ± 0.61	766.801 ± 0.63	–
m1 = 0.1286	808.142 ± 0.58	802.7 ± 0.58	797.232 ± 0.59	791.742 ± 0.6	786.222 ± 0.6	780.656 ± 0.61	769.421 ± 0.62	1276 ± 1.2
m1 = 0.1428	810.505 ± 0.57	805.061 ± 0.58	799.583 ± 0.59	794.089 ± 0.59	788.55 ± 0.6	782.985 ± 0.61	771.734 ± 0.62	–
m1 = 0.1587	813.161 ± 0.57	807.703 ± 0.58	802.224 ± 0.58	796.713 ± 0.59	791.168 ± 0.6	785.595 ± 0.6	774.335 ± 0.62	1275.3 ± 1.2
m1 = 0.19	818.466 ± 0.57	812.988 ± 0.57	807.489 ± 0.58	801.964 ± 0.59	796.411 ± 0.59	790.822 ± 0.6	779.533 ± 0.61	1274.6 ± 1.2
m1 = 0.2204	823.615 ± 0.56	818.13 ± 0.57	812.623 ± 0.57	807.083 ± 0.58	801.513 ± 0.59	795.917 ± 0.59	784.593 ± 0.61	1273.9 ± 1.2
m1 = 0.2527	829.214 ± 0.56	823.715 ± 0.56	818.194 ± 0.57	812.642 ± 0.57	807.057 ± 0.58	801.45 ± 0.59	790.088 ± 0.6	–
m1 = 0.2636	831.14 ± 0.55	825.637 ± 0.56	820.113 ± 0.57	814.557 ± 0.57	808.967 ± 0.58	803.34 ± 0.58	791.988 ± 0.6	1273.2 ± 1.2
m1 = 0.2777	833.591 ± 0.55	828.085 ± 0.56	822.557 ± 0.56	816.995 ± 0.57	811.404 ± 0.58	805.778 ± 0.58	794.405 ± 0.6	–
m1 = 0.3089	839.134 ± 0.55	833.612 ± 0.55	828.072 ± 0.56	822.494 ± 0.56	816.889 ± 0.57	811.253 ± 0.58	799.854 ± 0.59	1272.1 ± 1.2

[Br-].[Br-].[Mn+2] [manganese(II) bromide] + CC#N
Details	mass density, 288.15 K [kg/m3]	mass density, 293.15 K [kg/m3]	mass density, 298.15 K [kg/m3]	mass density, 303.15 K [kg/m3]	mass density, 308.15 K [kg/m3]	mass density, 313.15 K [kg/m3]	mass density, 323.15 K [kg/m3]	speed of sound, 298.15 K [m/s]
m1 = 0.0415	793.652 ± 0.59	788.26 ± 0.6	782.85 ± 0.6	777.408 ± 0.61	771.942 ± 0.62	766.441 ± 0.62	755.33 ± 0.64	–
m1 = 0.0513	795.156 ± 0.59	789.764 ± 0.6	784.353 ± 0.6	778.907 ± 0.61	773.433 ± 0.62	767.926 ± 0.62	756.805 ± 0.64	–
m1 = 0.06115	796.676 ± 0.59	791.28 ± 0.59	785.862 ± 0.6	780.415 ± 0.61	774.941 ± 0.61	769.432 ± 0.62	758.311 ± 0.63	1277.2 ± 1.2
m1 = 0.07131	798.243 ± 0.59	792.85 ± 0.59	787.428 ± 0.6	781.978 ± 0.61	776.494 ± 0.61	770.984 ± 0.62	759.855 ± 0.63	–
m1 = 0.08138	799.819 ± 0.58	794.414 ± 0.59	788.989 ± 0.6	783.537 ± 0.6	778.054 ± 0.61	772.539 ± 0.62	761.403 ± 0.63	1276.9 ± 1.2
m1 = 0.09054	801.238 ± 0.58	795.84 ± 0.59	790.408 ± 0.6	784.953 ± 0.6	779.461 ± 0.61	773.94 ± 0.62	762.804 ± 0.63	–
m1 = 0.1006	802.824 ± 0.58	797.413 ± 0.59	791.982 ± 0.59	786.518 ± 0.6	781.03 ± 0.61	775.513 ± 0.61	764.368 ± 0.63	1276.7 ± 1.2
m1 = 0.1214	806.091 ± 0.58	800.671 ± 0.58	795.23 ± 0.59	789.765 ± 0.6	784.269 ± 0.6	778.744 ± 0.61	767.585 ± 0.62	–
m1 = 0.1406	809.125 ± 0.57	803.696 ± 0.58	798.249 ± 0.59	792.776 ± 0.59	787.272 ± 0.6	781.741 ± 0.61	770.567 ± 0.62	1276.1 ± 1.2
m1 = 0.1603	812.287 ± 0.57	806.853 ± 0.58	801.398 ± 0.58	795.916 ± 0.59	790.407 ± 0.6	784.868 ± 0.6	773.687 ± 0.62	–
m1 = 0.1712	814.024 ± 0.57	808.58 ± 0.57	803.121 ± 0.58	797.634 ± 0.59	792.128 ± 0.59	786.584 ± 0.6	775.396 ± 0.61	1275.7 ± 1.2
m1 = 0.1804	815.501 ± 0.57	810.054 ± 0.57	804.59 ± 0.58	799.11 ± 0.59	793.589 ± 0.59	788.041 ± 0.6	776.847 ± 0.61	–
m1 = 0.1995	818.585 ± 0.56	813.117 ± 0.57	807.642 ± 0.58	802.149 ± 0.58	796.622 ± 0.59	791.065 ± 0.6	779.856 ± 0.61	1275.3 ± 1.2
